Test results taken from patent publication US10206937B2, “Boronic acid derivatives and therapeutic uses thereof” (Qpex Biopharma, Inc., priority 2014, dated 2019).

Experiments:
[1] = molecular target: T1, NDM-1 (Klebsiella pneumoniae, UniProt C7C422); assay: Inhibition of purified class B carbapenemase NDM-1 (Ki, imipenem substrate); assay type: biochemical; settings: NDM-1, substrate imipenem; read-out: Ki NDM-1, Imipenem
[2] = molecular target: T1, NDM-1; assay: biochemical; settings: cleavage of imipenem (100 uM) by NDM-1; read-out: Ki, Imipenem
[3] = molecular target: T2, VIM-1 (Pseudomonas aeruginosa, UniProt A0A0F7KYQ8); assay: biochemical; settings: cleavage of nitrocefin (200 uM) by VIM-1 supernatant
T2 construct: made in house; host or cells: ECM6711 strain carrying pUCP24-VIM-1 plasmid; culture supernatant used unpurified

[4] = molecular target: T3, purified class A, C and D enzymes (UniProt Q6XEC0); assay type: biochemical; settings: read-out: Ki (OXA-48, NCF); purified OXA-48; nitrocefin reporter substrate
T3 construct: rows headed: Ki (OXA-48, NCF); other: purified OXA-48; nitrocefin reporter substrate

[5] = molecular target: T4, purified class A, C and D enzymes (UniProt P0AD64, L31Q/G234S/E235K, species not given); assay type: biochemical; settings: read-out: Ki (SHV-12, NCF); purified SHV-12; nitrocefin reporter substrate
T4 construct: Ki (SHV-12, NCF); other: purified SHV-12; nitrocefin reporter substrate
T4 sequence (P0AD64 1-286 L31Q/G234S/E235K): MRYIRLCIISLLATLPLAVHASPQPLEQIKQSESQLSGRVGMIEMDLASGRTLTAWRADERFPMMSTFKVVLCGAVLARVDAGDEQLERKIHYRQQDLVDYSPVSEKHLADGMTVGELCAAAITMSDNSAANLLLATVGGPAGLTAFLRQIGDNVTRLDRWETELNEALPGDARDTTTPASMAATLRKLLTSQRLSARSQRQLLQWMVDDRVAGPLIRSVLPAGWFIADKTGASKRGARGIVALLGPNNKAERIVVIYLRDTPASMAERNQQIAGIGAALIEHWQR

[6] = molecular target: T5, purified class A, C and D enzymes (UniProt Q9F663); assay type: biochemical; settings: read-out: Ki (KPC-2, NCF); purified KPC-2; nitrocefin reporter substrate
T5 construct: rows headed: Ki (KPC-2, NCF); other: purified KPC-2; nitrocefin reporter substrate

[7] = molecular target: purified class A, C and D enzymes (Enterobacter cloacae, UniProt P05364); assay type: biochemical; settings: purified P99/AmpC of ECL; nitrocefin reporter substrate
[8] = molecular target: purified class A, C and D enzymes (Escherichia coli, UniProt Q9L5C7); assay type: biochemical; settings: purified CTX-M-14; nitrocefin reporter substrate
purified class A, C and D enzymes (Escherichia coli, UniProt Q9L5C7), sequence (Q9L5C7 entry or part of it): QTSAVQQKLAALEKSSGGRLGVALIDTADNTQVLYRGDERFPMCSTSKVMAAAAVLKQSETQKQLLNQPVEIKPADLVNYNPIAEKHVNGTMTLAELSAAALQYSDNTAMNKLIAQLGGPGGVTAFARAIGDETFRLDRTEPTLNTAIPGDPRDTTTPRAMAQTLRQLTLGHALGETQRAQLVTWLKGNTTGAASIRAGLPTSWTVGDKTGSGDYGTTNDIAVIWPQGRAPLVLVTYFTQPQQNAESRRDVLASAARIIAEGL

purified class A, C and D enzymes (Enterobacter cloacae, UniProt P05364), sequence (P05364 21-381): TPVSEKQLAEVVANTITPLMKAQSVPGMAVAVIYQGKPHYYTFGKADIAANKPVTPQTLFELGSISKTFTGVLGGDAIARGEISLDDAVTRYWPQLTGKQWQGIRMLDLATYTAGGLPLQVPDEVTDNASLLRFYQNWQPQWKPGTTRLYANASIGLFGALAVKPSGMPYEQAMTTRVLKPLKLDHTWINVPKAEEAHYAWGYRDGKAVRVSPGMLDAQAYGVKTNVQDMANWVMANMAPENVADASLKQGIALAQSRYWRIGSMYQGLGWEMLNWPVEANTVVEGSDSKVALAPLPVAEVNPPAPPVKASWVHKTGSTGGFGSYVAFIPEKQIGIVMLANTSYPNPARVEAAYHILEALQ
T1 sequence (C7C422 29-270, looked up, species assumed): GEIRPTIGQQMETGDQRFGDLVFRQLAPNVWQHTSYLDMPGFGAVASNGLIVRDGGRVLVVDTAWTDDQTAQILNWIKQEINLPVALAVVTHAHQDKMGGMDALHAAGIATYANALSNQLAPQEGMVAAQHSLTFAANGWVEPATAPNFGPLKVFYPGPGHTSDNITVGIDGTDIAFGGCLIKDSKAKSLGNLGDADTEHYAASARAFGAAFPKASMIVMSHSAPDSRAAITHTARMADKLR

| Structure (SMILES) | Ki [1] [nM] | Ki [2] [nM] | IC50 [3] [nM] | Ki [4] [nM] | Ki [5] [nM] | Ki [6] [nM] | Ki (P99/AmpC of ECL, NCF) [7] | Ki (CTX-M-14, NCF) [8] |
| --- | --- | --- | --- | --- | --- | --- | --- | --- |
| CC(C)COc1ccc2c(c1C(=O)O)OB(O)[C@@H](Sc1nncs1)C2 [Compound 88, (3R)-2-hydroxy-7-isobutoxy-3-(1,3,4-thiadiazol-2-ylsulfanyl)-3,4-dihydro-1,2-benzoxaborinine-8-carboxylic acid] | 10 to 100 | 10 to 100 | < 1000 | < 100 | < 100 | 100 to 1000 | Y (0.1 μM to 1 μM) | X (Less than 0.1 μM) |
| COCCOc1ccc2c(c1C(=O)O)OB(O)[C@@H](Sc1nncs1)C2 [Compound 89, (3R)-2-hydroxy-7-(2-methoxyethoxy)-3-(1,3,4-thiadiazol-2-ylsulfanyl)-3,4-dihydro-1,2-benzoxaborinine-8-carboxylic acid] | 10 to 100 | 10 to 100 | < 1000 | < 100 | < 100 | 100 to 1000 | Z (Greater than 1 μM) | X (Less than 0.1 μM) |
| Nc1nnc(S[C@H]2Cc3ccc(OCC(F)F)c(C(=O)O)c3OB2O)s1 [Compound 90, (3R)-3-[(5-amino-1,3,4-thiadiazol-2-yl)sulfanyl]-7-(2,2-difluoroethoxy)-2-hydroxy-3,4-dihydro-1,2-benzoxaborinine-8-carboxylic acid] | 10 to 100 | 10 to 100 | < 1000 | < 100 | < 100 | < 100 | Z (Greater than 1 μM) | X (Less than 0.1 μM) |
| O=C(O)c1c(OCC(F)F)ccc2c1OB(O)[C@@H](Sc1nncs1)C2 [Compound 91, (3R)-7-(2,2-difluoroethoxy)-2-hydroxy-3-(1,3,4-thiadiazol-2-ylsulfanyl)-3,4-dihydro-1,2-benzoxaborinine-8-carboxylic acid] | 10 to 100 | 10 to 100 | < 1000 | < 100 | < 100 | 100 to 1000 | Y (0.1 μM to 1 μM) | X (Less than 0.1 μM) |
| COc1ccc2c(c1C(=O)O)OB(O)[C@@H](Sc1nnc(NC3CNC3)s1)C2 [Compound 96, (3R)-3-[[5-(azetidin-3-ylamino)-1,3,4-thiadiazol-2-yl]sulfanyl]-2-hydroxy-7-methoxy-3,4-dihydro-1,2-benzoxaborinine-8-carboxylic acid] | < 10 | < 10 | < 1000 | < 100 | < 100 | 100 to 1000 | Y (0.1 μM to 1 μM) | X (Less than 0.1 μM) |
| COc1ccc2c(c1C(=O)O)OB(O)[C@@H](Sc1nnc(NCCN3CCNCC3)s1)C2 [Compound 98, (3R)-2-hydroxy-7-methoxy-3-[[5-(2-piperazin-1-ylethylamino)-1,3,4-thiadiazol-2-yl]sulfanyl]-3,4-dihydro-1,2-benzoxaborinine-8-carboxylic acid] | 10 to 100 | 10 to 100 | < 1000 | < 100 | < 100 | 100 to 1000 | Y (0.1 μM to 1 μM) | X (Less than 0.1 μM) |
| O=C(O)c1cccc2c1OB(O)[C@@H](Sc1nnc(NC3CNC3)s1)C2 [Compound 99, (3R)-3-[[5-(azetidin-3-ylamino)-1,3,4-thiadiazol-2-yl]sulfanyl]-2-hydroxy-3,4-dihydro-1,2-benzoxaborinine-8-carboxylic acid] | < 10 | < 10 | < 1000 | < 100 | < 100 | 100 to 1000 | X (Less than 0.1 μM) | X (Less than 0.1 μM) |
| COc1ccc2c(c1C(=O)O)OB(O)[C@@H](Sc1nnc(NCCCN)s1)C2 [Compound 100, (3R)-3-[[5-(3-aminopropylamino)-1,3,4-thiadiazol-2-yl]sulfanyl]-2-hydroxy-7-methoxy-3,4-dihydro-1,2-benzoxaborinine-8-carboxylic acid] | < 10 | < 10 | < 1000 | < 100 | < 100 | 100 to 1000 | X (Less than 0.1 μM) | X (Less than 0.1 μM) |
| COc1ccc2c(c1C(=O)O)OB(O)[C@@H](Sc1nnc(N(CCN)CCN)s1)C2 [Compound 101, (3R)-3-[[5-[bis(2-aminoethyl)amino]-1,3,4-thiadiazol-2-yl]sulfanyl]-2-hydroxy-7-methoxy-3,4-dihydro-1,2-benzoxaborinine-8-carboxylic acid] | < 10 | < 10 | < 1000 | < 100 | < 100 | 100 to 1000 | Z (Greater than 1 μM) | X (Less than 0.1 μM) |
| COc1ccc2c(c1C(=O)O)OB(O)[C@@H](Sc1nnc(NC(CN)CN)s1)C2 [Compound 102, (3R)-3-[[5-[[2-amino-1-(aminomethyl)ethyl]amino]-1,3,4-thiadiazol-2-yl]sulfanyl]-2-hydroxy-7-methoxy-3,4-dihydro-1,2-benzoxaborinine-8-carboxylic acid] | < 10 | < 10 | < 1000 | 100 to 1000 | < 100 | > 1000 | Z (Greater than 1 μM) | X (Less than 0.1 μM) |
| COc1ccc2c(c1C(=O)O)OB(O)[C@@H](Sc1nnc(N[C@H]3CCNC3)s1)C2 [Compound 103, (3R)-2-hydroxy-7-methoxy-3-[[5-[[(3S)-pyrrolidin-3-yl]amino]-1,3,4-thiadiazol-2-yl]sulfanyl]-3,4-dihydro-1,2-benzoxaborinine-8-carboxylic acid] | < 10 | < 10 | < 1000 | < 100 | < 100 | 100 to 1000 | Y (0.1 μM to 1 μM) | X (Less than 0.1 μM) |
| COc1ccc2c(c1C(=O)O)OB(O)[C@@H](Sc1nnc(NC3CCNCC3)s1)C2 [Compound 104, (3R)-2-hydroxy-7-methoxy-3-[[5-(4-piperidylamino)-1,3,4-thiadiazol-2-yl]sulfanyl]-3,4-dihydro-1,2-benzoxaborinine-8-carboxylic acid] | < 10 | < 10 | < 1000 | < 100 | < 100 | < 100 | Y (0.1 μM to 1 μM) | X (Less than 0.1 μM) |
| COc1ccc2c(c1C(=O)O)OB(O)[C@@H](Sc1nnc(NCCNC3CNC3)s1)C2 [Compound 105, (3R)-3-[[5-[2-(azetidin-3-ylamino)ethylamino]-1,3,4-thiadiazol-2-yl]sulfanyl]-2-hydroxy-7-methoxy-3,4-dihydro-1,2-benzoxaborinine-8-carboxylic acid] | < 10 | < 10 | < 1000 | < 100 | < 100 | 100 to 1000 | Y (0.1 μM to 1 μM) | X (Less than 0.1 μM) |
| COc1ccc2c(c1C(=O)O)OB(O)[C@@H](Sc1nnc(SCCN)s1)C2 [Compound 107, (3R)-3-[[5-(2-aminoethylsulfanyl)-1,3,4-thiadiazol-2-yl]sulfanyl]-2-hydroxy-7-methoxy-3,4-dihydro-1,2-benzoxaborinine-8-carboxylic acid] | < 10 | < 10 | < 1000 | < 100 | < 100 | 100 to 1000 | Y (0.1 μM to 1 μM) | X (Less than 0.1 μM) |
| COc1ccc2c(c1C(=O)O)OB(O)[C@@H](Sc1nnc(SC3CNC3)s1)C2 [Compound 108, (3R)-3-[[5-(azetidin-3-ylsulfanyl)-1,3,4-thiadiazol-2-yl]sulfanyl]-2-hydroxy-7-methoxy-3,4-dihydro-1,2-benzoxaborinine-8-carboxylic acid] | 10 to 100 | 10 to 100 | < 1000 | < 100 | < 100 | 100 to 1000 | Y (0.1 μM to 1 μM) | X (Less than 0.1 μM) |
